Results taken from patent publication US7807439B2, “Staphylococcus aureus-specific detection media and identifying and/or counting method using same” (Biomerieux S.A., priority 2001, dated 2010).

Assays:
S. aureus 070 = assay: Experiment 5: fluorescent substrates in liquid medium, VITEK 2 reading; type: cell-based, Staphylococcus aureus; conditions: substrate 200 mg/l, read over 19 hours
Method: (§1) The media below were prepared in the base of the medium described in experiment 1, but in the absence of agar and in the presence of a fluorescent substrate instead of a chromogenic substrate. […] The various liquid media are distributed into the cupules of a support the size of a bank card, specific for the automated VITEK 2 (trademark) system of the company bioMérieux. […] The results, given in table 9 below, represent the incubation time, in hours, required to obtain the maximum level of fluorescence which can be measured by the device: […]

S. aureus 276 [1] = assay: as above; type: cell-based, Staphylococcus aureus; conditions: substrate 200 mg/l, read over 19 hours
Method: as §1

S. epidermidis 009 = assay: as above; type: cell-based, Staphylococcus epidermidis; conditions: substrate 200 mg/l, read over 19 hours
Method: as §1

S. intermedius 075 [2] = assay: as above; type: cell-based, Staphylococcus intermedius; conditions: substrate 200 mg/l, read over 19 hours
Method: as §1

S. saprophyticus 030 = assay: as above; type: cell-based, Staphylococcus saprophyticus; conditions: substrate 200 mg/l, read over 19 hours
Method: as §1

S. xylosus 008 = assay: as above; type: cell-based, Staphylococcus xylosus; conditions: substrate 200 mg/l, read over 19 hours
Method: as §1

[3] = tested on: coagulase-negative strains; assay: Experiment 5: fluorescent substrates, summary for coagulase-negative strains; type: cell-based
Method: as §1

[4] = tested on: coagulase-positive staphylococcal strains; assay: Experiment 5: fluorescent substrates, summary for coagulase-positive strains; type: cell-based, Staphylococcus aureus and Staphylococcus intermedius
Method: as §1

S. haemolyticus 131 = assay: Experiment 5: fluorescent substrates in liquid medium, VITEK 2 reading; type: cell-based, Staphylococcus haemolyticus; conditions: substrate 200 mg/l, read over 19 hours
Method: as §1

Staphylococcal species = assay: Experiment 6: Staphylococcal growth in the presence of inhibitors; type: cell-based, Staphylococcus; conditions: inhibitors added to the medium, concentrations per mixture
S. epidermidis 103 = assay: Experiment 4: naphthol derivative substrates in API galleries, liquid medium; type: cell-based, Staphylococcus epidermidis; design: key: the mark 0 corresponds to a negative reaction; marks 1, 2, 3 and 4 indicate intermediate levels of coloration and therefore of enzyme activity; marks 1, 2, 3 and 4 indicate intermediate levels of coloration and therefore of enzyme activity; marks 1, 2, 3 and 4 indicate intermediate levels of coloration and therefore of enzyme activity; marks 1, 2, 3 and 4 indicate intermediate levels of coloration and therefore of enzyme activity; the mark 5 to a reaction of maximum intensity; conditions: 4 hours of incubation at 37° C.
Method: (§2) The experiment below was carried out in a liquid medium and in the presence of naphthol derivative-based chromogenic substrates.
(§3) The medium and the substrates are distributed into API “galleries” (trademark) produced by the company bioMérieux at Marcy I'Etoile, France.
(§4) These “galleries” constitute a semi-quantitative method for searching for enzyme activities in microorganisms and make it possible to rapidly and simultaneously study nineteen enzyme activities. Each “gallery” comprises twenty cupules in which the solutions containing the enzyme substrates are distributed. The enzyme assays are carried out by distributing 65 μl of bacterial suspension at 5-6 McFarland into each cupule.
(§5) The intensity of coloration for each cupule is examined visually after 4 hours of incubation at 37° C. and after the addition of appropriate reagents: ZYM A (ref.: 70470) and ZYM B (ref.: 70480), which can be obtained from bioMérieux also mentioned above. The intensity of coloration will be directly proportional to the amount of substrate hydrolysed by the enzyme.
(§6) The values for the intensity of coloration are then marked on a results sheet according to the following classification: the mark 0 corresponds to a negative reaction, the mark 5 to a reaction of maximum intensity, marks 1, 2, 3 and 4 indicate intermediate levels of coloration and therefore of enzyme activity. More detailed information on this marking can be found in the API reading scale provided with the “galleries” of the same name.
(§7) The enzyme activity sought and the corresponding naphthol derivative substrates are described in table 6 below: […]

S. saprophyticus 009 = assay: as above; type: cell-based, Staphylococcus saprophyticus; design: key: the mark 0 corresponds to a negative reaction; marks 1, 2, 3 and 4 indicate intermediate levels of coloration and therefore of enzyme activity; marks 1, 2, 3 and 4 indicate intermediate levels of coloration and therefore of enzyme activity; marks 1, 2, 3 and 4 indicate intermediate levels of coloration and therefore of enzyme activity; marks 1, 2, 3 and 4 indicate intermediate levels of coloration and therefore of enzyme activity; the mark 5 to a reaction of maximum intensity; conditions: 4 hours of incubation at 37° C.
Method: as §2, §3, §4, §5, §6, §7

S. intermedius 075 [5] = assay: as above; type: cell-based, Staphylococcus intermedius; design: key: the mark 0 corresponds to a negative reaction; marks 1, 2, 3 and 4 indicate intermediate levels of coloration and therefore of enzyme activity; marks 1, 2, 3 and 4 indicate intermediate levels of coloration and therefore of enzyme activity; marks 1, 2, 3 and 4 indicate intermediate levels of coloration and therefore of enzyme activity; marks 1, 2, 3 and 4 indicate intermediate levels of coloration and therefore of enzyme activity; the mark 5 to a reaction of maximum intensity; conditions: 4 hours of incubation at 37° C.
Method: as §2, §3, §4, §5, §6, §7

S. haemolyticus 137 = assay: as above; type: cell-based, Staphylococcus haemolyticus; design: key: the mark 0 corresponds to a negative reaction; marks 1, 2, 3 and 4 indicate intermediate levels of coloration and therefore of enzyme activity; marks 1, 2, 3 and 4 indicate intermediate levels of coloration and therefore of enzyme activity; marks 1, 2, 3 and 4 indicate intermediate levels of coloration and therefore of enzyme activity; marks 1, 2, 3 and 4 indicate intermediate levels of coloration and therefore of enzyme activity; the mark 5 to a reaction of maximum intensity; conditions: 4 hours of incubation at 37° C.
Method: as §2, §3, §4, §5, §6, §7

S. aureus 276 [6] = assay: as above; type: cell-based, Staphylococcus aureus; design: key to intensity of coloration (enzyme activity mark): the mark 0 corresponds to a negative reaction; marks 1, 2, 3 and 4 indicate intermediate levels of coloration and therefore of enzyme activity; marks 1, 2, 3 and 4 indicate intermediate levels of coloration and therefore of enzyme activity; marks 1, 2, 3 and 4 indicate intermediate levels of coloration and therefore of enzyme activity; marks 1, 2, 3 and 4 indicate intermediate levels of coloration and therefore of enzyme activity; the mark 5 to a reaction of maximum intensity; conditions: for intensity of coloration (enzyme activity mark): S. aureus 276, 4 hours of incubation at 37° C.
Method: as §2, §3, §4, §5, §6, §7

α-glucosidase = assay: Experiment 6: detection of α-glucosidase activity in the presence of inhibitors; type: cell-based, Staphylococcus; conditions: inhibitors added to the medium, concentrations per mixture

Molecule	hours of incubation required to obtain the maximum level of fluorescence (S. aureus 070) [h]	hours of incubation required to obtain the maximum level of fluorescence (S. aureus 276 [1]) [h]	hours of incubation required to obtain the maximum level of fluorescence (S. epidermidis 009) [h]	hours of incubation required to obtain the maximum level of fluorescence (S. intermedius 075 [2]) [h]	hours of incubation required to obtain the maximum level of fluorescence (S. saprophyticus 030) [h]	hours of incubation required to obtain the maximum level of fluorescence (S. xylosus 008) [h]	hours of incubation required to obtain the maximum level of fluorescence (S. haemolyticus 131) [h]	intensity of coloration (enzyme activity mark) (S. epidermidis 103)	intensity of coloration (enzyme activity mark) (S. saprophyticus 009)	intensity of coloration (enzyme activity mark) (S. intermedius 075 [5])	intensity of coloration (enzyme activity mark) (S. haemolyticus 137)	intensity of coloration (enzyme activity mark) (S. aureus 276 [6])	also measured
Cc1cc(=O)oc2cc(O[C@H]3O[C@H](CO)[C@@H](O)[C@H](O)[C@H]3O)ccc12 [4-MU-α-GLU, 4-methylumbelliferyl-α-D-glucoside]	8	7	19	5	19	11	19	–	–	–	–	–	incubation time to obtain a maximum level of fluorescence [3]: > 10 h; incubation time to obtain a maximum level of fluorescence [4]: < 8 h
Cc1cc(=O)oc2cc(O[C@@H]3O[C@H](CO)[C@H](O)[C@H](O)[C@H]3O)ccc12 [4-MU-β-GAL, 4-methylumbelliferyl-β-D-galactoside]	3	3	4	2	12	5	12	–	–	–	–	–	–
Cc1cc(=O)oc2cc(O[C@@H]3O[C@H](CO)[C@@H](O)[C@H](O)[C@H]3O)ccc12 [4-MU-β-GLU, 4-methylumbelliferyl-β-D-glucoside]	4	6	8	7	9	9	7	–	–	–	–	–	–
Cc1cc(=O)oc2cc(O[C@@H]3O[C@H](C(=O)O)[C@@H](O)[C@H](O)[C@H]3O)ccc12 [4-MU-β-GUR, 4-methylumbelliferyl-β-D-glucuronide]	3	3	4	2	19	5	19	–	–	–	–	–	–
[Cl-].[Li+] [LiCl, lithium chloride]	–	–	–	–	–	–	–	–	–	–	–	–	Staphylococcal growth (Staphylococcal species): decreases
O=P(O)(O)Oc1ccc2ccccc2c1 [No 2, 2-naphthyl-phosphate]	–	–	–	–	–	–	–	3	1	4	0	2	–
OC[C@H]1O[C@H](Oc2ccc3cc(Br)ccc3c2)[C@H](O)[C@@H](O)[C@H]1O [No 3, 6-bromo-2-naphthyl-α-D-galactopyranoside]	–	–	–	–	–	–	–	0	0	0	0	0	–
OC[C@H]1O[C@@H](Oc2ccc3ccccc3c2)[C@H](O)[C@@H](O)[C@H]1O [No 4, 2-naphthyl-β-D-galactopyranoside]	–	–	–	–	–	–	–	0	3	3	0	0	–
OC[C@H]1O[C@H](Oc2ccc3ccccc3c2)[C@H](O)[C@@H](O)[C@@H]1O [No 6, 2-naphthyl-α-D-glucopyranoside]	–	–	–	–	–	–	–	1	1	1	2	5	α-glucosidase activity (S. aureus 276 [6]; Staphylococcus aureus strain, API gallery): strongly expressed
OC[C@H]1O[C@@H](Oc2ccc3cc(Br)ccc3c2)[C@H](O)[C@@H](O)[C@@H]1O [No 7, 6-bromo-2-naphtyl-β-D-glucopyranoside]	–	–	–	–	–	–	–	0	0	0	0	0	–
C[C@H]1[C@H](NC(=O)/C(=N\OC(C)(C)C(=O)O)c2csc(N)n2)C(=O)N1S(=O)(=O)O [aztreonam]	–	–	–	–	–	–	–	–	–	–	–	–	effect on detection/expression of α-glucosidase (α-glucosidase): very slightly decreased; Staphylococcal growth (Staphylococcal species): does not disturb the bacterial growth
colistin	–	–	–	–	–	–	–	–	–	–	–	–	Staphylococcal growth (Staphylococcal species): virtually no effect
naphthol-β-D-glucuronide [No 5]	–	–	–	–	–	–	–	0	0	0	0	0	–
